Data on one molecule can be found in patent publication US20090253616A1, “COMBINATION THERAPY FOR THE TREATMENT OF CANCER” (ASTRAZENECA AB, priority 2006, published 2009).

This experiment relates to MCF7 ADR cells. Briefly: Activity in MDR cells: inhibition of phosphohistone H3 (phH3) in MCF7 ADR cells, with and without UIC2 mAb. Type of experiment: cell-based. The method, then: MCF7 ADR cells are known to highly express Pgp and other efflux transporters.
On day 1; 8×10^4 MCF7 ADR cells/ml were plated into a 96 well plate in 100 μl of media (DMEM, 10% FCS, 1% glutamine) and left to adhere at 37° C. overnight.
After 24 hours the cells were examined using the light microscope, and any cellular change in morphology was noted. The cells were then fixed with 100 μl of 3.7% formaldehyde for 30 minutes at room temperature and then washed in PBS using an automated plate washer. 1001 PBS 0.5% triton X-100 was then added for 5 minutes on a shaker. The plate was washed in 100 μl PBS and 50 μl of primary antibody (1:1000 rabbit anti-phosphohistone H3 in PBS 1% BSA 0.5% tween) was added. The plate was left for at least 1 hour at room temperature, on a shaker, after which the antibody was removed and the cells washed twice with PBS. In darkness, 50 μl of secondary antibody (1:10,000 Hoechst and 1:1000 Alexa Fluor 488 anti rabbit in PBS 1% BSA 0.5% tween) was added and the plate left for at least 1 hour at room temperature. The secondary antibody was removed and the plate washed twice with PBS. 200 μl PBS was then added and left for 10 minutes with shaking. The PBS was removed. 100 μl PBS was added and the plate sealed prior to analysis. […]
The plate was analysed on a Cellomics Arrayscan using the Target Activation algorithm. […]

Consider `CCN(CCCOc1ccc2c(Nc3cc(CC(=O)Nc4cccc(F)c4)[nH]n3)ncnc2c1)CCOP(=O)(O)O` [aurora kinase inhibitor, 2-[[3-({4-[(5-{2-[(3-fluorophenyl)amino]-2-oxoethyl}-1H-pyrazol-3-yl)amino]-quinazolin-7-yl}oxy)propyl](ethyl)amino]ethyl dihydrogen phosphate], for which the “activity of aurora kinase inhibitor alone (inhibition of phH3)” value (100 nM) was “inactive”. The “Pgp mediated efflux of the compound (substrate of Pgp)” value (efflux inhibited by UIC2 mAb 10 μg/ml) was “Pgp mediated efflux”.
